Measurements as given in publication PMC10178204, “Peptaibol Analogs Show Potent Antibacterial Activity against Multidrug Resistant Opportunistic Pathogens” (International Journal of Molecular Sciences, 2023).
In brackets after ≈: the same amount, converted by molar mass. Several values for one entry are separate records, joined by “and”; a condition that tells them apart may be missing. Equal entries are not always repeated. Non-standard residues stand in square brackets, D forms with d. Residues, ends and D or L forms follow the SMILES beside them. *: point of attachment. Leu(ol) = CC(C)C[C@H](N)CO; Octanoyl = CCCCCCCC(=O)*; Aib = CC(C)(N)C(=O)O

Key:
[1] = tested on: Acinetobacter baumannii ATCC 17978; details: for MBC Aba / MIC Aba: MHB, 5 × 10^5 CFU/mL, 18 h, 35 °C, triplicate; for MIC against A. baumannii, in molar units: corresponding to 2 and 8 μg/mL
From the text: (§1) The antibacterial activity of the peptides was initially assessed on a panel of representative Gram-positive and Gram-negative organisms of high clinical relevance and commonly responsible for bacterial infections in both animals and humans. Bacillus subtilis ATCC 6633 (Bsu) was also included as a rod-shaped model Gram-positive organism. This first panel comprised: Enterococcus faecalis ATCC 29212 (Efa); Streptococcus pyogenes ATCC 12344 (Spy); and Staphylococcus aureus ATCC 25923 (Sau); Gram-negative: Escherichia coli CCUGT (Eco), Klebsiella pneumoniae ATCC 13833 (Kpn), Acinetobacter baumannii ATCC 17978 (Aba), and Pseudomonas aeruginosa ATCC 27853 (Pae) (Table 2). Both the minimum inhibitory concentration (MIC, Table 2) and the minimum bactericidal concentration (MBC, Table S1, Supporting Material) were determined.
(§2) The minimum inhibitory concentration (MIC) and the minimum bactericidal concentration (MBC) of the compounds were determined in triplicate using Mueller–Hinton broth (MHB). […] Therefore, we decided to dissolve all peptides in DMSO to a final concentration of 25 mg/mL, for consistency. The bacteria inoculum was 5 × 10^5 CFU/mL, as recommended by CLSI (Document M07-A10, 2015). […] Reference-type strains, including representatives of both Gram-positive bacteria (Bacillus subtilis ATCC 6633, Enterococcus faecalis ATCC 29212, Staphylococcus aureus ATCC 25923, the methicillin-resistant Staphylococcus aureus ATCC 43300 (MRSA), Streptococcus pyogenes ATCC 12344) and Gram-negative bacteria (Escherichia coli CCUGT, Klebsiella pneumoniae ATCC 13833, Pseudomonas aeruginosa ATCC 27853, and Acinetobacter baumannii ATCC 17978), were acquired from ATCC or CCUG culture collections. Other antibiotic-resistant clinical isolates were present in our collection at the University Teaching Hospital (Azienda Ospedaliero-Universitaria Senese ‘Santa Maria alle Scotte’) in Siena, Tuscany, Italy. Specifically, MDR carbapenem-hydrolyzing class D β-lactamase-producing Acinetobacter baumannii and metallo-β-lactamase-producing Pseudomonas aeruginosa were used in this study (Table 4).

[2] = tested on: Bacillus subtilis ATCC 6633; details: MHB, 5 × 10^5 CFU/mL, 18 h, 35 °C, triplicate
From the text: as §1, §2

[3] = tested on: Enterococcus faecalis ATCC 29212; details: MHB, 5 × 10^5 CFU/mL, 18 h, 35 °C, triplicate
From the text: as §1, §2

Escherichia coli CCUGT = details: MHB, 5 × 10^5 CFU/mL, 18 h, 35 °C, triplicate
From the text: as §1, §2

[4] = tested on: Klebsiella pneumoniae ATCC 13833; details: MHB, 5 × 10^5 CFU/mL, 18 h, 35 °C, triplicate
From the text: as §1, §2

[5] = tested on: Pseudomonas aeruginosa ATCC 27853; details: MHB, 5 × 10^5 CFU/mL, 18 h, 35 °C, triplicate
From the text: as §1, §2

[6] = tested on: Staphylococcus aureus ATCC 25923; details: MHB, 5 × 10^5 CFU/mL, 18 h, 35 °C, triplicate
From the text: as §1, §2

[7] = tested on: Streptococcus pyogenes ATCC 12344; details: MHB, 5 × 10^5 CFU/mL, 18 h, 35 °C, triplicate
From the text: as §1, §2

[8] = tested on: reference Gram-positive and Gram-negative strains
From the text: as §1, §2

[9] = tested on: A. baumannii SI-12 (OXA-23); details: MHB, 5 × 10^5 CFU/mL, 18 h, 35 °C, triplicate
Description: as §2

[10] = tested on: A. baumannii SI-310 (OXA-24); details: colistin-resistant isolate; MHB, 5 × 10^5 CFU/mL, 18 h, 35 °C, triplicate
Description: as §2

[11] = tested on: A. baumannii SI-648 (OXA-23, OXA-51-like); details: MHB, 5 × 10^5 CFU/mL, 18 h, 35 °C, triplicate
Description: as §2

[12] = tested on: P. aeruginosa 101/1477 (IMP-1); details: MHB, 5 × 10^5 CFU/mL, 18 h, 35 °C, triplicate
Description: as §2

[13] = tested on: P. aeruginosa 506/99 (VIM-2); details: MHB, 5 × 10^5 CFU/mL, 18 h, 35 °C, triplicate
Description: as §2

[14] = tested on: P. aeruginosa VA-182/00 (VIM-2); details: MHB, 5 × 10^5 CFU/mL, 18 h, 35 °C, triplicate
Description: as §2

[15] = tested on: P. aeruginosa VR-143/97 (VIM-1); details: MHB, 5 × 10^5 CFU/mL, 18 h, 35 °C, triplicate
Description: as §2

[16] = tested on: S. aureus ATCC 43300 (MRSA); details: MHB, 5 × 10^5 CFU/mL, 18 h, 35 °C, triplicate
Description: as §2

Molecule	MBC Aba [1]	MIC Aba [1]	MIC against A. baumannii, in molar units [1]	MBC Bsu [2]	MIC Bsu [2]	MBC Efa [3]	MIC Efa [3]	MBC Eco (Escherichia coli CCUGT)	MIC Eco (Escherichia coli CCUGT)	MIC Kpn [4]	MIC Pae [5]	MIC Sau [6]	MBC Spy [7]	MIC Spy [7]	MBC A. baumannii SI-12 (OXA-23) [9]	MIC A. baumannii SI-12 (OXA-23) [9]	MBC A. baumannii SI-310 (OXA-24) [10]	MIC A. baumannii SI-310 (OXA-24) [10]	MBC A. baumannii SI-648 (OXA-23, OXA-51-like) [11]	MIC A. baumannii SI-648 (OXA-23, OXA-51-like) [11]	also measured
1-Oct-Aib-Gly-Leu-Aib-Lys-Lys-Leu-Aib-Lys-Ile-Lol [Peptide 5]	16 µg/mL	4 µg/mL	1.8 to 7.2 µM	16 µg/mL	8 µg/mL	8 µg/mL	4 µg/mL	> 16 µg/mL	8 µg/mL	16 µg/mL	8 µg/mL	16 µg/mL	4 µg/mL	4 µg/mL	4 µg/mL	4 μg/mL and 4/4 μg/mL	4 µg/mL	2 µg/mL	4 µg/mL	4 μg/mL and 4/4 μg/mL	MBC Kpn [4]: 16 µg/mL; MBC Pae [5]: > 16 µg/mL; MBC Sau [6]: 16 µg/mL; MIC against six of the eight bacterial strains tested ([8]; reference panel): 4 to 8 µg/mL; MIC against the other two strains ([8]; reference panel): 16 µg/mL; MBC P. aeruginosa 101/1477 (IMP-1) [12]: 8 µg/mL; MIC P. aeruginosa 101/1477 (IMP-1) [12]: 8 µg/mL; MBC P. aeruginosa 506/99 (VIM-2) [13]: 8 µg/mL; MIC P. aeruginosa 506/99 (VIM-2) [13]: 8 µg/mL; MBC P. aeruginosa VA-182/00 (VIM-2) [14]: 8 µg/mL; MIC P. aeruginosa VA-182/00 (VIM-2) [14]: 8 µg/mL; MBC P. aeruginosa VR-143/97 (VIM-1) [15]: 8 µg/mL; MIC P. aeruginosa VR-143/97 (VIM-1) [15]: 8 µg/mL; MBC S. aureus ATCC 43300 (MRSA) [16]: 2 µg/mL; MIC S. aureus ATCC 43300 (MRSA) [16]: 2 µg/mL
CCCCCCCC(=O)NC(C)(C)C(=O)N[C@@H](CCCCN)C(=O)N[C@@H](CC(C)C)C(=O)NC(C)(C)C(=O)N[C@@H](CCCCN)C(=O)NCC(=O)N[C@@H](CC(C)C)C(=O)NC(C)(C)C(=O)NCC(=O)N[C@H](C(=O)N[C@H](CO)CC(C)C)[C@@H](C)CC [Peptide 1, 1-Oct-Aib-Lys-Leu-Aib-Lys-Gly-Leu-Aib-Gly-Ile-Lol] (Octanoyl-[Aib]KL[Aib]KGL[Aib]GI[Leu(ol)])	16 µg/mL (≈ 13.2 µM)	4 µg/mL (≈ 3.31 µM)	1.8 to 7.2 µM	16 µg/mL (≈ 13.2 µM)	4 µg/mL (≈ 3.31 µM)	2 µg/mL (≈ 1.65 µM)	2 µg/mL (≈ 1.65 µM)	32 µg/mL (≈ 26.5 µM)	32 µg/mL (≈ 26.5 µM)	> 128 µg/mL	16 µg/mL (≈ 13.2 µM)	16 µg/mL (≈ 13.2 µM)	4 µg/mL (≈ 3.31 µM)	2 µg/mL (≈ 1.65 µM)	8 µg/mL (≈ 6.62 µM)	4 µg/mL (≈ 3.31 µM)	4 µg/mL (≈ 3.31 µM)	4 μg/mL and 4/4 μg/mL	16 µg/mL (≈ 13.2 µM)	8 µg/mL (≈ 6.62 µM)	lowest MIC ([8]; lowest value over the eight reference strains): 2 µg/mL; MBC P. aeruginosa 101/1477 (IMP-1) [12]: 16 µg/mL (≈ 13.2 µM); MIC P. aeruginosa 101/1477 (IMP-1) [12]: 8 µg/mL (≈ 6.62 µM); MBC P. aeruginosa 506/99 (VIM-2) [13]: 32 µg/mL (≈ 26.5 µM); MIC P. aeruginosa 506/99 (VIM-2) [13]: 16 µg/mL (≈ 13.2 µM); MBC P. aeruginosa VA-182/00 (VIM-2) [14]: 16 µg/mL (≈ 13.2 µM); MIC P. aeruginosa VA-182/00 (VIM-2) [14]: 16 µg/mL (≈ 13.2 µM); MBC P. aeruginosa VR-143/97 (VIM-1) [15]: 32 µg/mL (≈ 26.5 µM); MIC P. aeruginosa VR-143/97 (VIM-1) [15]: 32 µg/mL (≈ 26.5 µM); MBC S. aureus ATCC 43300 (MRSA) [16]: 2 µg/mL (≈ 1.65 µM); MIC S. aureus ATCC 43300 (MRSA) [16]: 2 µg/mL (≈ 1.65 µM)
